Source: ChEMBL document CHEMBL4396888, “Design and Synthesis of Potent, Selective Inhibitors of Protein Arginine Methyltransferase 4 against Acute Myeloid Leukemia” (J Med Chem, 2019)
Active and inactive are the calls of the source. No cut-off for these calls is given here.

Columns and labels:
[1] = target: Histone-lysine N-methyltransferase, H3 lysine-79 specific (Homo sapiens) (UniProt Q8TEK3); experiment: Inhibition of DOT1L (unknown origin) up to 50 uM preincubated for 15 mins followed by substrate addition and measured after 60 mins by AlphaLisa assay
[2] = Half life in ICR mouse at 3 mg/kg, iv by mass spectrometric analysis; format: ADME, organism-based; conditions: in vivo
[3] = Drug level in tumor of nude BALB/c mouse xenografted with human MOLM13 cells at 100 mg/kg, po administered daily for 18 days measured 6 hrs post-last dose by LC-MS/MS analysis; format: ADME, organism-based, Neoplasm; conditions: read-out: Drug uptake
[4] = system: MONO-MAC-6; experiment: Antiproliferative activity against human MONO-MAC-6 cells measured after 6 days by CCK8/SRB assay; format: functional, cell-based
[5] = AUC (0 to last) in ICR mouse at 10 mg/kg, po administered via gavage by mass spectrometric analysis; format: ADME, organism-based; design: dose 10 mg/kg, route oral, time 0 - last; conditions: in vivo
[6] = Toxicity in nude BALB/c mouse xenografted with human MOLM13 cells assessed as body weight loss at 100 mg/kg, po administered daily for 18 days measured 2 to 3 times a week during compound dosing; format: organism-based; conditions: in vivo, 432 h
[7] = target: Histone-lysine N-methyltransferase NSD2 (Homo sapiens) (UniProt O96028); experiment: Inhibition of NSD2 (unknown origin) up to 50 uM preincubated for 15 mins followed by substrate addition and measured after 60 mins by AlphaLisa assay
[8] = system: MOLM-13; experiment: Cell cycle arrest in human MOLM13 cells assessed as increase in accumulation at G0/G1-phase measured after 72 hrs by propidium iodide staining-based flow cytometry; format: functional
[9] = Half life in ICR mouse at 10 mg/kg, po administered via gavage by mass spectrometric analysis; format: ADME, organism-based; conditions: in vivo
[10] = Drug level in ICR mouse plasma at 10 mg/kg, po administered via gavage measured after 0.25 to 24 hrs by mass spectrometric analysis; format: ADME, organism-based; conditions: in vivo
[11] = target: T1, Histone-arginine methyltransferase CARM1 (Homo sapiens, UniProt Q86X55); experiment: Inhibition of PRMT4 in human MOLM13 cells assessed as reduction in PABP1 dimethylation measured after 96 hrs by Western blotting analysis; format: cell-based
T1 sequence (Q86X55 whole entry): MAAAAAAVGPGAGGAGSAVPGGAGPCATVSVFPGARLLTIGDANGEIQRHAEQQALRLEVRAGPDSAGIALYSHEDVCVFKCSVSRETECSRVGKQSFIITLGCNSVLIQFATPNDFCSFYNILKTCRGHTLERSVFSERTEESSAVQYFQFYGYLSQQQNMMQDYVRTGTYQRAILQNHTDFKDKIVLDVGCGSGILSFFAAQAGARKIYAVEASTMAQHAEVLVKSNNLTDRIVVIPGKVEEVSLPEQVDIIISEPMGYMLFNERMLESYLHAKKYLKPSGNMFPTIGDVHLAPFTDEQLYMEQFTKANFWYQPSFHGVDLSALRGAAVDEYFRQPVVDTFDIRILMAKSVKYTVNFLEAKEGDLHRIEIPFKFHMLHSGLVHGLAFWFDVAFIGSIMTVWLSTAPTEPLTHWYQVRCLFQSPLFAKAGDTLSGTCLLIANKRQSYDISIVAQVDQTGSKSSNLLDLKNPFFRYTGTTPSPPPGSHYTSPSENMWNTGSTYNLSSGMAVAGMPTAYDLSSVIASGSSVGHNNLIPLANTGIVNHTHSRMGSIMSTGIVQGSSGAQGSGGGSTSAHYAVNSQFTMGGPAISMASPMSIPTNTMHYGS

[12] = system: MOLM-13; experiment: Antiproliferative activity against human MOLM13 cells measured after 6 days by CCK8/SRB assay; conditions: MOLM-13, 144 h
[13] = system: HEL; experiment: Antiproliferative activity against HEL cells measured after 6 days by CCK8/SRB assay; format: functional, cell-based; conditions: Homo sapiens
[14] = system: MOLM-13; experiment: Cell cycle arrest in human MOLM13 cells assessed as decrease in accumulation at S-phase measured after 72 hrs by propidium iodide staining-based flow cytometry; format: functional
[15] = target: Protein arginine N-methyltransferase 6 (Homo sapiens, UniProt Q96LA8); experiment: Inhibition of PRMT6 (unknown origin) preincubated for 15 mins followed by substrate addition and measured after 60 mins by AlphaLisa assay
[16] = system: MOLM-13; experiment: Antitumor activity against human MOLM13 cells xenografted in BALB/c nude mouse assessed as tumor growth inhibition at 100 mg/kg, po administered daily for 18 days measured 2 to 3 times a week by caliper method relative to control; format: functional; conditions: MOLM-13, po, 432 h, read-out: TGI
[17] = Ratio of drug level in tumor of nude BALB/c mouse xenografted with human MOLM13 cells to IC50 for antiproliferative activity against human MOLM13 cells; format: cell-based
[18] = AUC (0 to last) in ICR mouse at 3 mg/kg, iv by mass spectrometric analysis; format: ADME, organism-based; design: dose 3 mg/kg, route intravenous, time 0 - last; conditions: in vivo
[19] = Selectivity ratio of IC50 for antiproliferative activity against human MOLM13 cells to IC50 for inhibition of PRMT4 in human MOLM13 cells assessed as reduction in BAF155 dimethylation
[20] = target: Histone-lysine N-methyltransferase EHMT2 (Homo sapiens) (UniProt Q96KQ7); experiment: Inhibition of G9a (unknown origin) up to 50 uM preincubated for 15 mins followed by substrate addition and measured after 60 mins by AlphaLisa assay
Chain of Histone-lysine N-methyltransferase EHMT2 (Homo sapiens) (Q96KQ7 whole entry): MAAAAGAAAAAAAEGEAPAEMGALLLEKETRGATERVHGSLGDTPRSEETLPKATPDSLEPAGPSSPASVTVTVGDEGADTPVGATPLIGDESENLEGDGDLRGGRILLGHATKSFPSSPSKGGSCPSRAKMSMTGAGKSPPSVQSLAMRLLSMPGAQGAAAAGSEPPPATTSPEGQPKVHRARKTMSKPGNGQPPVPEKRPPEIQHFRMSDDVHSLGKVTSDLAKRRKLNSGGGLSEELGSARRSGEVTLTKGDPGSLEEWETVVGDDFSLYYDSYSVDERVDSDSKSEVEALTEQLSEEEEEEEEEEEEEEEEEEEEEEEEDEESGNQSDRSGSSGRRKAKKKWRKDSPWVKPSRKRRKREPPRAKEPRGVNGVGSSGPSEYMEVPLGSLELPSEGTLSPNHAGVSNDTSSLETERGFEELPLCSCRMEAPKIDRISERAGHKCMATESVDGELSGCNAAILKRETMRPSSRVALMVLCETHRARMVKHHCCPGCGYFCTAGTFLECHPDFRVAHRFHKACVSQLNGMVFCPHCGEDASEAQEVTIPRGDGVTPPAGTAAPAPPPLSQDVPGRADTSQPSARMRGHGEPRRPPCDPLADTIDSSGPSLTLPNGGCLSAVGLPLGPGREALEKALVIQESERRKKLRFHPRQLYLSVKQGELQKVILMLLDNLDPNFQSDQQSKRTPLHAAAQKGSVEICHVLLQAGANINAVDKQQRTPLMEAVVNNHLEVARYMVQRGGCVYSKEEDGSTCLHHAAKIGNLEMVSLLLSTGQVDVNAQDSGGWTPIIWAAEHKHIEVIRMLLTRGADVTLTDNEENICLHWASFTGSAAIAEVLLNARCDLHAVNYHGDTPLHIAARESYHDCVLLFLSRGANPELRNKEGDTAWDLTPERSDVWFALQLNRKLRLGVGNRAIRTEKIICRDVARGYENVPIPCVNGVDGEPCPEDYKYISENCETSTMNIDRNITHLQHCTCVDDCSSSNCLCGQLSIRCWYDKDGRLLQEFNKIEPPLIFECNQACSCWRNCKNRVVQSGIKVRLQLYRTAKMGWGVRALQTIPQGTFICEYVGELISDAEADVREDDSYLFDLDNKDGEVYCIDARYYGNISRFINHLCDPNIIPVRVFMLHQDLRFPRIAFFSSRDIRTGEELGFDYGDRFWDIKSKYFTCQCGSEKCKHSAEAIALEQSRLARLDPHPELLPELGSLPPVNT

Chain of Histone-lysine N-methyltransferase NSD2 (Homo sapiens) (O96028 whole entry): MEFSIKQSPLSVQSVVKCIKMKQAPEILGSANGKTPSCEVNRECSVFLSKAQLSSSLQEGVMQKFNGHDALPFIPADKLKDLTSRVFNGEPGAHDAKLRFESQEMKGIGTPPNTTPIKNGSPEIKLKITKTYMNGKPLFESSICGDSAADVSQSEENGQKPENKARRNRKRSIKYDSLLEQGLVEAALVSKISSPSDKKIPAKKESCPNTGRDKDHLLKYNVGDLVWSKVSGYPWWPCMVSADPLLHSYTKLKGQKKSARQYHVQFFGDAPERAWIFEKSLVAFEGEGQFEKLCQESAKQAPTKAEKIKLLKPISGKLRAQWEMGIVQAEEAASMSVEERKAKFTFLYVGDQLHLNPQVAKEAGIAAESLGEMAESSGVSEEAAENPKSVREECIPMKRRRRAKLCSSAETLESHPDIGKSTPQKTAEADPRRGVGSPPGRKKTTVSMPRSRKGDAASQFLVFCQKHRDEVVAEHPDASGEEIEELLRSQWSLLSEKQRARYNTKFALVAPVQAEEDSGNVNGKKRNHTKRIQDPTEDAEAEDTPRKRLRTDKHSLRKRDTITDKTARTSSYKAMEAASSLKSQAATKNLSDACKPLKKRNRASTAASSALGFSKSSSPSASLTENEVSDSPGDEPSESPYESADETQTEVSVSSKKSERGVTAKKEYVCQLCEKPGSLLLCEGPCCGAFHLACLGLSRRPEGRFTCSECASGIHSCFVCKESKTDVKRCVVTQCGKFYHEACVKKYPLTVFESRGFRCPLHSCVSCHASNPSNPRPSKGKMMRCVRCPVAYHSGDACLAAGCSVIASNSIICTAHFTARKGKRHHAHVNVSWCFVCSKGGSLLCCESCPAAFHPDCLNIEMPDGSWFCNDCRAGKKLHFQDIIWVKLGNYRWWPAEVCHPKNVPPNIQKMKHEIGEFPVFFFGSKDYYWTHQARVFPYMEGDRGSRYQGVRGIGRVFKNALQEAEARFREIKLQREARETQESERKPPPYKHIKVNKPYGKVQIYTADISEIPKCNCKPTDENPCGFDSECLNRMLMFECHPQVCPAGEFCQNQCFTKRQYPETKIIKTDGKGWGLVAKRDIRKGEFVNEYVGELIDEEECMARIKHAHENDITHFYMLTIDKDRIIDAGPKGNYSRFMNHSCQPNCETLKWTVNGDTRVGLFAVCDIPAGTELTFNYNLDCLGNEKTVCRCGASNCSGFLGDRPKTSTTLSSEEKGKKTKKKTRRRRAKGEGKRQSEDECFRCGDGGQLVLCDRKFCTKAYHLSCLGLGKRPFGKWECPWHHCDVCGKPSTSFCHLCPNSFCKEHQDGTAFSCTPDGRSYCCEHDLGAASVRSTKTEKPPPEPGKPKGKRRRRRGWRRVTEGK
Chain of Protein arginine N-methyltransferase 6 (Q96LA8 whole entry): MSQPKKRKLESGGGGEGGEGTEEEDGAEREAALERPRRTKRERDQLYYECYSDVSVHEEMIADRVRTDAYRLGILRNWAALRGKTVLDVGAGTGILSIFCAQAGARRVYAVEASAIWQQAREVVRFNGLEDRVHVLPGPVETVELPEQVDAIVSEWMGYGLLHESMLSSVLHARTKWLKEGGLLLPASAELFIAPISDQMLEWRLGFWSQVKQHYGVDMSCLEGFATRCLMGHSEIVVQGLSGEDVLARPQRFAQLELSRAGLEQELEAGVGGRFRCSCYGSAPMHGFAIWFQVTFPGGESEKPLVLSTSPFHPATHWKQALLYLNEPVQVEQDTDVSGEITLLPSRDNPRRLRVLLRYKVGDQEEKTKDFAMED
Chain of Histone-lysine N-methyltransferase, H3 lysine-79 specific (Homo sapiens) (Q8TEK3 whole entry, looked up): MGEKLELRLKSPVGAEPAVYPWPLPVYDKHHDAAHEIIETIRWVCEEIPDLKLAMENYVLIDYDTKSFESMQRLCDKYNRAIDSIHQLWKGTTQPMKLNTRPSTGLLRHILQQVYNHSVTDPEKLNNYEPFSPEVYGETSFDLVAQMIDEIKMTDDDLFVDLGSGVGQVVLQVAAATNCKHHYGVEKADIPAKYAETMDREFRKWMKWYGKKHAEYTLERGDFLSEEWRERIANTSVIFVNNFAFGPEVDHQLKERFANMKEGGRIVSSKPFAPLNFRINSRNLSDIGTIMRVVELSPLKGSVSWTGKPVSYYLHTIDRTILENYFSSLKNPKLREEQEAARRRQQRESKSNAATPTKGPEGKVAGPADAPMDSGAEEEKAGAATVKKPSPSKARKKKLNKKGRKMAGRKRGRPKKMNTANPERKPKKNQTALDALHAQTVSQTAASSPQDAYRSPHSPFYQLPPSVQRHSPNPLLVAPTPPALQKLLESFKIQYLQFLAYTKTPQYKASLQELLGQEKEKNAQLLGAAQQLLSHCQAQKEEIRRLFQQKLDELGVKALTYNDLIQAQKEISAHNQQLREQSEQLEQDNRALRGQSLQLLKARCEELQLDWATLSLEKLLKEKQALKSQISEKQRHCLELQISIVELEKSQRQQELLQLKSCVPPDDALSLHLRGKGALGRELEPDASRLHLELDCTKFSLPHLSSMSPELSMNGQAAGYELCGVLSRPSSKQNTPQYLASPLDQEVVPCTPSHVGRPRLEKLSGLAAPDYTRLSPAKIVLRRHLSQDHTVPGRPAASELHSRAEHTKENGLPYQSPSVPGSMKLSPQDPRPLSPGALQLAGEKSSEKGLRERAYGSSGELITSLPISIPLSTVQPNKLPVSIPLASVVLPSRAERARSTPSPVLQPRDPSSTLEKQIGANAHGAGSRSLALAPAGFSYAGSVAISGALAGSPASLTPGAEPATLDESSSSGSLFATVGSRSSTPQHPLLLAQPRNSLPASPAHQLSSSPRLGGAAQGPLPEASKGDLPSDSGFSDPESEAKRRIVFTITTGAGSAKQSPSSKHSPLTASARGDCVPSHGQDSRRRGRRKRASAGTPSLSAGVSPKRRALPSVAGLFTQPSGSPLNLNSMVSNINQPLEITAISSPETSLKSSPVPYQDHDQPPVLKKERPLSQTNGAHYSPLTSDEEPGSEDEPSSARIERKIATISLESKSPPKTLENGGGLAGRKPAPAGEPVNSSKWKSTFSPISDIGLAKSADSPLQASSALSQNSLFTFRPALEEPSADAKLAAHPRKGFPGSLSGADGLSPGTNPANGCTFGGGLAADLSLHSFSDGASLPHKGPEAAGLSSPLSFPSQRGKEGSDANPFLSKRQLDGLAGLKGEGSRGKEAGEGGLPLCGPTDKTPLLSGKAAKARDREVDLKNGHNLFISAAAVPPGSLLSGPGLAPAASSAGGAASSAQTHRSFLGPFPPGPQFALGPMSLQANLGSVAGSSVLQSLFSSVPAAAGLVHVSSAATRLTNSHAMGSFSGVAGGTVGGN

CNC[C@@H](O)CN1CCc2c(cccc2OCc2ccc(-c3nccs3)cc2)C1
inhibition [1]: inactive
half-life [2]: 12.1 h
concentration at 6 h [3]: 80700 ng/g
Activity [4]: Dose-dependent effect
AUC(0-t) [5]: 1410 ng·h/mL
Activity [6]: Non-Toxic
inhibition [7]: inactive
Activity [8]: Dose-dependent effect
half-life [9]: 24.1 h
concentration [10]: 120 nM
IC50 [11]: 0.545 µM
IC50 [12]: 6.93 µM
Activity [13]: Dose-dependent effect
Activity [14]: Dose-dependent effect
IC50 [15]: 7.9 µM
inhibition in vivo at 100 mg/kg [16]: 53.5%
Ratio [17]: 20 to 30
AUC(0-t) [18]: 869 ng·h/mL
Ratio IC50 [19]: 10
inhibition [20]: inactive
